The subject of the test is diploid maize plant. The test can be described thus: Multibud induction, embryo axis method (Example 8). In kind it is in vivo. As for the experimental part: Seeds of a diploid maize plant were surface sterilized comprising immersion using standard methods of the art and then germinated in vitro in growth media. One of the resulting seedlings was dissected from its seed two days after germination (embryo axis method). The dissected axis was then subjected to a multibud induction treatment comprising transfer to fresh multibud induction media containing cytokinin in the form of 10 mg/L BAP. After seven days in the multibud bud induction media, the treated seedlings were transferred back to a hormone-free regeneration media. […] These multibuds were dissected from the mother plant and transferred to rooting media comprising IBA and IAA. After approximately one week, the multibud-derived plants were transplanted into 10 inch pots and allowed to grow in a greenhouse until it was clear that each autonomously-growing multibud-derived shoot had formed ears and tassels that nicked. Each ear was then pollinated from the tassel growing in the same pot and then all plants were allowed to grow in greenhouse conditions until seed set.

Regarding `c1ccc(CNc2ncnc3nc[nH]c23)cc1` [BAP, 6-Benzylaminopurine], where the note is “10 mg/L BAP for seven days, observed after approximately twenty days”, the multibud formation entry was “induced multibuds could be seen growing from the nodal regions of the stem”. In addition, the “seed borne by ears of multibud-derived plants” value (10 mg/L BAP multibud induction, self-pollinated multibud-derived plants) was “dozens of seed each”.

The values are drawn from patent publication US12108719B2, “Methods for creating doubled haploid plants” (Monsanto Technology LLC, priority 2015, dated 2024).
